# “Also recorded” adds a separate entry of the source.
# Tests used:
# [1] = target: T1, recombinant human cathepsin L (Homo sapiens, UniProt P07711); experiment: initial inhibitory screen of precursors against recombinant human cathepsin L; format: biochemical; details: 10 μM
# T1 sequence (P07711 18-333 limits assumed): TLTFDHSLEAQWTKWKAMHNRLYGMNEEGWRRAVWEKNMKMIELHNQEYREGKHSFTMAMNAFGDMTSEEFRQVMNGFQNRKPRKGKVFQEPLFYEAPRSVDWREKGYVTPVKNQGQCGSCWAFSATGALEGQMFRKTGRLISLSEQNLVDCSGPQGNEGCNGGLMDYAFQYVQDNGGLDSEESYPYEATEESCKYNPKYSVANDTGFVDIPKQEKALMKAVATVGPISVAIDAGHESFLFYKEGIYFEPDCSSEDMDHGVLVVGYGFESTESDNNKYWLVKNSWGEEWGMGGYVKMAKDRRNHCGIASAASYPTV
# Experimental: An initial inhibitory screen of various precursors (see FIG. 3A and FIG. 3B) was performed at 10 μM against recombinant human cathepsin L. The percent inhibition of each precursor is shown below its corresponding precursor in FIG. 3A and FIG. 3B. Precursor 301 was identified as a lead precursor with a 95±3% inhibition. In some embodiments, one or more of the 2, 3, 5 and/or 6 positions are occupied by an aryl group. Examples of suitable aryl groups include NHPh, OPh or homologs thereof.
# Cathepsin B = Cathepsin B (Homo sapiens, UniProt P07858); experiment: selectivity panel inactivation kinetics, Cathepsin B; format: biochemical; details: kinact (Cathepsin L)/kinact (Cathepsin B); fold
# From the text: (§1) This panel of enzymes included cysteine cathepsins, an aspartyl cathepsin, a serine cathepsin, a cysteine containing enzyme PTP, and a serine protease. The second order inactivation rate constants were thus determined by performing inactivation kinetics under a pseudo-first order condition (Table 1). […] Furthermore, no reactivity was observed against other panel of enzymes (e.g. aspartyl cathepsin D, serine cathepsin G, and a low pKa cysteine containing enzyme hPTP1B, and serine protease trypsin). A remarkable selectivity profile observed for compound 100 in these experiments is noteworthy, and thus is thought to lend itself well for the development of cathepsin L probes.
# (§2) Table 1 depicts second order enzyme inactivation rate constants (kinact) of compound 100 against a panel of closely-related enzymes. Relative Selectivity Factor (RSF)=kinact (Cathepsin L)/kinact (other enzyme); NI*=no inhibition at 0.1 mM of compound 100 in 1 h, NA**=Not Applicable.
# Cathepsin D = Cathepsin D (Homo sapiens, UniProt P07339); experiment: selectivity panel inactivation kinetics, Cathepsin D; format: biochemical; details: aspartyl cathepsin D
# Chain of Cathepsin D (P07339 65-412, species assumed): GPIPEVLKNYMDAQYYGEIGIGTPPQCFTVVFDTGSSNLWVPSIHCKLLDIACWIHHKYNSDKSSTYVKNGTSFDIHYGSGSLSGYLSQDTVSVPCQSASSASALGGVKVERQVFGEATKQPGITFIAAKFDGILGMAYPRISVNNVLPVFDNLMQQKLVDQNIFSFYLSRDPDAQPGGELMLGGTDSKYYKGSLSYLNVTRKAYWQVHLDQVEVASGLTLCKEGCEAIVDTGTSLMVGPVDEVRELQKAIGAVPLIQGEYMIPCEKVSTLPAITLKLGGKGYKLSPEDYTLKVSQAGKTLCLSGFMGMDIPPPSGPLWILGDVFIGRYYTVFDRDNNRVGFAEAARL
# From the text: as §1, §2
# Trypsin = experiment: selectivity panel inactivation kinetics, Trypsin; format: biochemical; details: serine protease trypsin
# From the text: as §1, §2
# hPTP1B = target: T2, hPTP1B (Homo sapiens, UniProt P18031); experiment: selectivity panel inactivation kinetics, hPTP1B; format: biochemical
# T2 sequence (P18031 1-435): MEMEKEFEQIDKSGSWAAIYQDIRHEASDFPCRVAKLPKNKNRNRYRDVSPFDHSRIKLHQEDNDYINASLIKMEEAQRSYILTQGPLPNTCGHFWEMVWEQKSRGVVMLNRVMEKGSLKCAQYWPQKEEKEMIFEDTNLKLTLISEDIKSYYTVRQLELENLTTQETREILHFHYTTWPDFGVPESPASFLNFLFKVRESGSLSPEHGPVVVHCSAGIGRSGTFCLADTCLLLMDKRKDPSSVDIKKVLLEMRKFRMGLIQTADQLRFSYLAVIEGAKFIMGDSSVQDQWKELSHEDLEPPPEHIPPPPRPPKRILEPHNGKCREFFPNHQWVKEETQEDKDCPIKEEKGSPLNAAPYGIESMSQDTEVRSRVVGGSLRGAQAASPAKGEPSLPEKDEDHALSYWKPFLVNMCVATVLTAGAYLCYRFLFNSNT
# From the text: as §1, §2
# [2] = system: intracellular cathepsin L activity in MDA-MB-231 cells; experiment: intracellular cathepsin L activity in MDA-MB-231 cells with cell-permeable fluorescent substrate; format: cell-based
# From the text: Cell-specific and tissue-specific microenvironments are highly dynamic, and can have a dramatic impact on enzymatic activities and their in vivo function. A direct quantitative reporter of cathepsin L activity in living cancer cells is more desirable for dissecting its role in promoting metastatic cancer. Thus an activity-dependent small molecule probe with desirable cell permeability is urgently needed. […] This cell line is known to overexpress cathepsin L, thereby promoting invasion. A commercial cell-permeable fluorescent substrate of cathepsin L (Enzo LifeSciences, Inc.) was utilized to assess the intracellular inhibitory efficacy of compound 100.
# Specifically, the effect of cathepsin L inhibitor 100 on intracellular cathepsin L activity in metastatic breast cancer MDA-MB-231 cell line was examined by fluorescence. Control cells and cells exposed to compound 100 were incubated with (a) vehicle (DMSO 0.05%). The non-control cells were also incubated with compound 100 (750 nM) overnight (22 h). […] Bright-field, fluorescence and merged images were obtained. […] The results are representative of three independent experiments. The effectiveness of cathepsin L inhibitor 100 was also evaluated using a functional wound-healing assay (FIG. 6A to 6F).
# [3] = system: MDA-MB-231 breast cancer cells; experiment: wound healing assay, cell migration; format: cell-based; details: MDA-MB-231 cells, 750 nM, 0, 7 and 22 hrs
# Experimental: MDA-MB-231 cells were grown in an eight-well glass dish overnight before treating with DMSO (control, 0.05%, FIGS. 6A, 6B and 6C), and compound 100 (750 nM, FIGS. 6D, 6E and 6F). After creating the wounds, images were taken at three different time intervals: t=0 hr (FIG. 6A and FIG. 6D), 7 hrs (FIG. 6B and FIG. 6E), and 22 hrs (FIG. 6C and FIG. 6F). Representative images of three independent experiments are shown. The dotted lines indicate the edge of the wound at time zero, and the arrows indicate the area of wound closure.
# FIG. 7 depicts wound closure, a direct measure of cell migratory potential, as calculated using the following equation: % Wound Closure=[(At=0h−At=22h)/At=0h]×100%, where At=0h is the area of the wound measured immediately after the scratch, and At=22h is the area of the wound after 22 hrs. The figure represents a statistical analysis by three independent experiments using the unpaired Student's t test. The data were evaluated as the mean±1 standard deviation. The image analysis were performed by ImageJ software.
# Cathepsin G = target: T3, Cathepsin G (Homo sapiens, UniProt P08311); experiment: selectivity panel inactivation kinetics, Cathepsin G; format: biochemical; details: serine cathepsin G
# T3 sequence (P08311 21-244): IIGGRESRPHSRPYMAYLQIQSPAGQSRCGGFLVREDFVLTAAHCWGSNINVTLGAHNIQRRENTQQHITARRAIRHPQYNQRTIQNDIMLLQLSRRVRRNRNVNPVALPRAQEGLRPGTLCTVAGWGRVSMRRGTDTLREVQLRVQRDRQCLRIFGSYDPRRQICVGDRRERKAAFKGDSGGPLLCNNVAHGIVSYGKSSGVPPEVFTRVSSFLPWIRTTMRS
# From the text: as §1, §2
# [4] = target: T4, active recombinant human cathepsin L (Homo sapiens, UniProt P07711); experiment: inhibition and inactivation kinetics of cathepsin L, hydrolysis of fluorescent substrate Z-Phe-Arg-(7-Amino-4-methylcoumarin); format: biochemical
# T4 construct: active recombinant human cathepsin L
# From the text: Based on this initial inhibitory screen compound 100 (FIG. 1), was proposed and successfully synthesized from precursor 301 using a multi-step synthetic methodology (FIG. 4A and FIG. 4B). […] FIG. 5 depicts a progress curve for cathepsin L-catalyzed hydrolysis of fluorescent substrate, Z-Phe-Arg-(7-Amino-4-methylcoumarin) with various concentration of compound 100. […] The dose-dependent progress curves were utilized to obtain the second order cathepsin L inactivation rate constant (kinact). […] The mode of inhibition was irreversible because no significant recovery of enzyme activity could be achieved, even after a very large dilution of inactivated reaction mixture.
# as §1, §2
# Cathepsin S = Cathepsin S (Homo sapiens, UniProt P25774); experiment: selectivity panel inactivation kinetics, Cathepsin S; format: biochemical; details: kinact (Cathepsin L)/kinact (Cathepsin S); fold
# Chain of Cathepsin S (P25774 115-331, species assumed): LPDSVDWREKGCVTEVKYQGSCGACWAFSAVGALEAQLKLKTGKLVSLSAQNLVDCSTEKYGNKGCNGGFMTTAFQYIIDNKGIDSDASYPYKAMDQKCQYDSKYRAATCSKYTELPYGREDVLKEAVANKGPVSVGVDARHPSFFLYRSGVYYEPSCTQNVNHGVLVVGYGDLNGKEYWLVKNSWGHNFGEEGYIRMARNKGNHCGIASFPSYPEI
# From the text: as §1, §2
# Cathepsin K = target: T5, Cathepsin K (Homo sapiens, UniProt P43235); experiment: selectivity panel inactivation kinetics, Cathepsin K; format: biochemical; details: kinact (Cathepsin L)/kinact (Cathepsin K); fold
# T5 sequence (P43235 115-329): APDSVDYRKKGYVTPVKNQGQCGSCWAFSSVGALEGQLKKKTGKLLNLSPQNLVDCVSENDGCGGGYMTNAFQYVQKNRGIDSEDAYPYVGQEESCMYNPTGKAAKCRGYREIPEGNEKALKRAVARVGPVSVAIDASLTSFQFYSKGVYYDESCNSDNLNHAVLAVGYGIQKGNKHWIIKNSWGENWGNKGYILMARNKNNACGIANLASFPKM
# From the text: as §1, §2
percent inhibition [1] [%],RSF (Relative Selectivity Factor) (Cathepsin B),reactivity (Cathepsin D),reactivity (hPTP1B),cell permeability [2],reactivity (Cathepsin G),time to near complete loss of cathepsin L activity ([4]; 15 nM compound 100),IC50 ([4]; human cathepsin L) [nM],RSF (Relative Selectivity Factor) ([4]; kinact (Cathepsin L)/kinact (Cathepsin L)),mode of inhibition ([4]; no significant recovery of activity after very large dilution),RSF (Relative Selectivity Factor) (Cathepsin S),RSF (Relative Selectivity Factor) (Cathepsin K),Structure (SMILES),reactivity (Trypsin),"intracellular substrate turnover (green fluorescence) ([2]; 750 nM, overnight (22 h), compared to control)",cell migratory potential (wound closure) [3]
95±3,,,,,,,,,,,,C=CS(=O)(=O)Oc1ccc(Br)cc1 [Precursor 301],,,
,"44,000",no reactivity,no reactivity,cell permeable,no reactivity,less than 100 s,3.6 ± 0.1,1,irreversible,13,100,CC(C)C[C@@H](/C=C/S(=O)(=O)Oc1ccc(Br)cc1)NC(=O)[C@H](Cc1ccccc1)NC(=O)OCc1ccccc1 [compound 100],no reactivity,near complete loss of intracellular substrate turnover; also recorded: significant loss of green fluorescent signal intensity,reducing cell migratory potential

# Source: patent publication US9481876B2, “Cathepsin L inhibitors and probes comprising vinyl sulfonate moiety and methods of using same” (Research Foundation of the City University of New York, priority 2014, dated 2016)
